Measured values as given in patent US7138242B2, “Olfactory receptor expression libraries and methods of making and using them” (Johns Hopkins University, priority 1998, dated 2006).

Key:
[1] = tested on: mouse olfactory receptor TM II–VII chimeric receptor library (pools of clones); assay: Ca2+ imaging screen of 80 library chimeric receptors (10 pools of eight constructs) against 26 odorants in HEK-293 cells with Gα15,16; assay type: cell-based
Protocol: (§1) HEK-293 cells (obtained from the ATCC) were grown in DMEM supplemented with 10% fetal bovine serum, penicillin (100 U/ml), streptomycin (100 μg/ml) and L-glutamine (2 mM) in 5% CO2. Before transfection, the cells were seeded onto poly-L-lysine-coated 10.5×35×0.17 mm glass coverslips (Bellco) placed in the 60 mm culture dishes. Calcium phosphate-mediated transfections were performed in a 60 mm dish with 3 to 4 μg of receptor construct DNA, 1 μg of pCIS Gα 15 and Gα16 expression vector (Offermanns (1995) supra). 2 μg of pBluescript carrier DNA, and 0.3 μg of pRSV-T antigen expression vector (Gorman (1990) DNA and Protein Eng. Tech. 2:3–9). After 5 to 7 hr incubation, the cells were washed once with PBS containing 0.5 mM EDTA and 10% DMSO, then with PBS before continuing growth in regular media for 40–50 hr.
(§2) These transfected cells were then tested for their ability to functionally respond to ligand-receptor binding. The ligand, the adrenergic agonist isoproterenol, was “bath” applied to the transfected cells and single cell Ca^2+-imaging was performed. Cells were pre-loaded with the Ca^2+-sensitive fluorescent dye FURA-2 AM (Molecular Probes) by bathing in serum-free DMEM containing 4 μM of the membrane permeant chemical for 1 hr at 37° C., then washed with a standard bath solution (130 mM NaCl, 2 mM CaCl2, 5 mM KCl, 10 mM glucose, 10 mM Na.HEPES/pH 7.4 at room temperature). For each experiment, a glass coverslip with FURA-2 loaded HEK 293 cells was introduced into an open-topped, longitudinal microperfusion chamber (300 μl bath volume mounted on a Zeiss Axiovert 135 microscope equipped with an F Fluar 40×/1.30 oil-immersion lens. The cells were superfused with test solutions typically for 30 to 40 seconds (5 ml/application) and washed out with 5 ml of bath solution at the end of each application. Each test solution was freshly diluted and manually applied with a micropipette into the chamber. Because of this manual procedure, there could be several seconds of delay in actual application from electronic tick marks used to define the beginning of application in each graph. At the same time, the solution flow might not be completely laminar. In most cases, the onset of Ca2+ rise in response to a specific solution occurred within 15 seconds of the beginning of solution application, though longer delays were sometimes observed. Acetylcholine was applied at the end of each experiment at 10 μM for 15–20 seconds. Ratiometric Ca^2+ measurements were performed as described by Grynkiewicz (1985) 260:3440–3450, with modifications using the Zeiss/Attofluor-Ratiovision imaging system. At 5-second intervals, the cells were sequentially illuminated for less than 100 ms, first at 340 nm and then at 380 nm. Fluorescence emission at 510 nm was monitored for each excitation wavelength via an intensified CCD camera. Averaged pixel intensities within 40 to 100 regions of interest, corresponding to 40 to 100 individual cells, were digitized and stored on a computer. Attofluor-Ratiovision software (Atto Instruments) was used to determine the Ca^2+-dependent fluorescence signal expressed as the F340/F380 ratio.
The 7-transmembrane domain region TM II–VII expressing vector libraries of the invention were expressed in this cell expression system. Various odorant were screened for their ability to generate a physiologic response in the form of a calcium transient, as above. Eighty plasmid clones arrayed in microtiter plates were pooled into 10 groups of eight constructs each, and co-transfected with Gα15,16 into HEK-293 cells. […]

[2] = tested on: full-length I-C6 receptor fused to translocation domain (rhodopsin tag); assay: Ca2+ imaging, full-length I-C6 receptor with rhodopsin tag in HEK-293 cells; assay type: cell-based, mouse
Protocol: PCR products were digested with PstI and BspEI restriction enzymes before size fractionation, purification and ligation into the pCMV-Rho/M4NC vector (see FIG. 1A). The vector ligation products were transformed into E. coli and 480 clones were placed in 96-well plates. […] Pools of cells from a single column of the plates (8 wells) were grown in a 50 ml culture and plasmid DNA prepared. Insert-containing vectors containing: the 5′-untranslated region of the rhodopsin gene, which included its coding region for the initiation methionine and the next 19 residues; joined to a full-length cDNA for a mouse olfactory receptor (M4 or I-C6), under the control of the CMV promoter, were also prepared. The full-length coding region of olfactory receptors mI7 and I-C6 were obtained by screening a mouse (129 SV/J) genomic phage (λFIX-II) library (2×10^6 independent clones) using ^32P-labeled DNA fragments (of TMII through VII sequence) of the respective receptors under stringent conditions (hybridized at 0.2×SSC at 65° C.). DNA fragments encoding the full-length receptors were cloned into pBluescript (Stratagene) and sequenced.
as §2
To determine if these physiologic responses were caused by ligand interaction with a full-length 7-membrane receptor, a genomic clone of the entire I-C6 receptor coding sequence was isolated and used to make a chimeric molecule incorporating the tranlocation domain of the invention (the “rhodopsin tag” sequence). The full-length I-C6 receptor retained the same stereo-selectivity as a chimeric receptor construct whose only I-C6 sequence was the transmembrane domains II through VII (i.e., the odorant/ligand binding domain). […]

[3] = tested on: Rho/M4NC-β2 TM II–VII (TM II–VII region from the β2-adrenergic receptor in pCMV-Rho/M4NC); assay: Single-cell FURA-2 Ca2+ imaging, HEK-293 cells co-transfected with Rho/M4NC-β2 TM II–VII and Gα15,16; assay type: cell-based, human
Protocol: HEK-293 cells (obtained from the ATCC) were grown in DMEM supplemented with 10% fetal bovine serum, penicillin (100 U/ml), streptomycin (100 μg/ml) and L-glutamine (2 mM) in 5% CO2. […] After 5 to 7 hr incubation, the cells were washed once with PBS containing 0.5 mM EDTA and 10% DMSO, then with PBS before continuing growth in regular media for 40–50 hr.
Efficient screening of expressed olfactory receptors with a large number of ligands by functional analysis requires a robust and sensitive assay system. […] In this reporter system, (olfactory) receptor activation leads to the generation of an IP3-mediated increase in intracellular Ca^2+, which can be measured at the single-cell level with high sensitivity and good temporal resolution using the dye FURA-2 and radiofluorometric imaging.
A construct with the TM II–VII region from the β2-adrenergic receptor inserted in the pCMV-Rho/M4NC vector (Rho/M4NC-β2 TM II–VII) was co-transfected with Gα15,16 into HEK-293 cells. […] Images of fluorescent cells were obtained on a Zeiss 510 confocal microscope with excitation at 488 nm.
These transfected cells were then tested for their ability to functionally respond to ligand-receptor binding. The ligand, the adrenergic agonist isoproterenol, was “bath” applied to the transfected cells and single cell Ca^2+-imaging was performed. Cells were pre-loaded with the Ca^2+-sensitive fluorescent dye FURA-2 AM (Molecular Probes) by bathing in serum-free DMEM containing 4 μM of the membrane permeant chemical for 1 hr at 37° C., then washed with a standard bath solution (130 mM NaCl, 2 mM CaCl2, 5 mM KCl, 10 mM glucose, 10 mM Na.HEPES/pH 7.4 at room temperature). […] Acetylcholine was applied at the end of each experiment at 10 μM for 15–20 seconds. […] At 5-second intervals, the cells were sequentially illuminated for less than 100 ms, first at 340 nm and then at 380 nm. Fluorescence emission at 510 nm was monitored for each excitation wavelength via an intensified CCD camera. Averaged pixel intensities within 40 to 100 regions of interest, corresponding to 40 to 100 individual cells, were digitized and stored on a computer. Attofluor-Ratiovision software (Atto Instruments) was used to determine the Ca^2+-dependent fluorescence signal expressed as the F340/F380 ratio.

[4] = tested on: endogenous β-adrenergic receptors; assay: Single-cell FURA-2 Ca2+ imaging, HEK-293 cells transfected with the G protein subunits (Gα15,16) alone; assay type: cell-based, human; details: no receptor construct
Protocol: as §1
These transfected cells were then tested for their ability to functionally respond to ligand-receptor binding. The ligand, the adrenergic agonist isoproterenol, was “bath” applied to the transfected cells and single cell Ca^2+-imaging was performed. […] Fluorescence emission at 510 nm was monitored for each excitation wavelength via an intensified CCD camera. […] Attofluor-Ratiovision software (Atto Instruments) was used to determine the Ca^2+-dependent fluorescence signal expressed as the F340/F380 ratio. […]

## C=C(C)C1CC=C(C)C(=O)C1 (centres unmarked) [carvone]
[1]; micromolar concentrations, three receptors, respectively
  response of a library receptor: responded
[2]; 100 μM
  intracellular Ca2+ response: no responses

## CC(C)=CCCC(C)CC(=O)O (single isomer, unassigned; (-)) [(−) citronellic acid]
[2]; 30 μM
  intracellular Ca2+ response: only 30 μM (−) citronellyl bromide elicited a small response

## CC(C)NCC(O)c1ccc(O)c(O)c1 (centres unmarked) [isoproterenol]
[3]; bath application, cells co-transfected with Gα15,16
  intracellular Ca2+ response (FURA-2 F340/F380): transient increase in intracellular Ca^2+
[3]; second application (desensitization)
  Ca2+ response to a second application: frequently failed to elicit a response
[3]; with vs without cotransfected Gα15,16
  dependence of the Ca2+ transient on Gα15,16: dependent on cotransfection with the Gα15,16 subunits
[4]
  intracellular Ca2+ response: small response

## CC(C)=CCC/C(C)=C/C=O [+/− citral]
[2]; 30 μM
  intracellular Ca2+ response: only 30 μM (−) citronellyl bromide elicited a small response

## (−) citral demethyl acetal
[2]; 30 μM
  intracellular Ca2+ response: only 30 μM (−) citronellyl bromide elicited a small response

## CC(C)=CCCC(C)CCO (single isomer, unassigned; (-)) [(−) citronellol]
[2]; 30 μM
  intracellular Ca2+ response: only 30 μM (−) citronellyl bromide elicited a small response

## CC(C)=CCCC(C)CC=O (single isomer, unassigned; (+)) [(+) citronellal]
[1]; 10 μM, odorants applied sequentially
  intracellular Ca2+ response of a clone pool: absence of response
[2]
  qualitative rank order of potency for binding and activating the I-C6 receptor: (−)citronellal>(+)citronellal, citronellyl bromide>28 other odorants
[2]; 30 μM
  intracellular Ca2+ response: elicit a response
[2]; 100 μM
  intracellular Ca2+ response: elicit a response
